Measurements as given in patent US10208089B2, “Modulation of complement activity” (priority 2014, dated 2019).
Starred links: 1 amine or outer side, 2 acyl side, 3 side chain; linkers in the order of their positions; H or OH if unused. Positions of bridges follow the written chain, without caps; N, C: chain ends. Non-standard residues stand in square brackets, D forms with d. Residues, ends and D or L forms follow the SMILES beside them. Trp(7-aza) = N[C@@H](Cc1c[nH]c2ncccc12)C(=O)O; mXylylene = c1cc(C[*:1])cc(C[*:2])c1; Phg = N[C@H](C(=O)O)c1ccccc1; NMeS = CN[C@@H](CO)C(=O)O; Nva = CCC[C@H](N)C(=O)O

Key:
C5 [1] = target: T1, C5 (Homo sapiens, UniProt P01031); experiment: Human hemolysis assay (RBC lysis assay using complete human sera); format: cell-based; set-up: with complete human sera (Complement Technology, Tyler Tex.) and polypeptides; tissue Complement Technology, Tyler Tex; host or cells: complete human serum; conditions: inhibition of lysis of antibody-sensitized sheep erythrocytes, complete human sera
C5a = C5a EIA on supernatant from human RBC hemolysis assay; format: biochemical; conditions: hemolysis assay supernatant diluted 1:50; read-out: IC50, inhibition of formation of C5a
Method: Levels of C5a correlate with complement activity and are therefore an indicator of the ability of the compounds tested to inhibit complement activity. Supernatant from the hemolysis assay was diluted 1:50 and assayed for C5a levels. […] As used herein, the term “IC50” refers to the half maximal inhibitory concentration, a value used to indicate the amount of the inhibitor needed to reduce a given reaction or process by half.
Inhibition of the production of C5a and the membrane attack complex (MAC) were measured by MicroVue EIA kits (Quidel Corporation, San Diego, Calif.).

[2] = system: membrane attack complex (MAC); experiment: Membrane attack complex (MAC) EIA on supernatant from human RBC hemolysis assay; format: biochemical; conditions: hemolysis assay supernatant diluted 1:5; read-out: IC50, inhibition of formation of the MAC
Method: Supernatant from the hemolysis assay was diluted 1:5 and assayed for MAC levels.
C5 inhibitory activity was assessed by enzyme immunoassay (EIA). Inhibition of the production of C5a and the membrane attack complex (MAC) were measured by MicroVue EIA kits (Quidel Corporation, San Diego, Calif.).

C5 [3] = target: T1, C5; experiment: Fluorescence polarization saturation binding of probe R3076 to C5; set-up: purchased Complement Technology, Tyler, Tex; conditions: read-out: equilibrium dissociation constant (KD)
Method: FP was used for screening competitive polypeptide inhibitors of the C5 protein. […] The BODIPY-TMR dye attached to the C-terminal lysine of the protein and the subsequent labeled probe was purified by HPLC.
Polarization was measured over time, until binding reached equilibrium. KD was determined using Graphpad Prism (using “Saturating Binding Curves, One Site—Specific Binding With Hill Slope” as the curve fit to determine KD). […] Based on this information, 25 nM and 50 nM concentrations for R3076 (SEQ ID NO: 40) and C5 protein, respectively, were chosen for use in the competition assay. These concentrations represented the approximate level of protein necessary for 95% probe binding to C5 protein.

primate C5 protein [4] = experiment: Ex vivo hemolysis assay on plasma samples from the cynomolgus PK study; format: in vivo, cynomolgus monkey
Text: Also shown are changes in hemolytic activity (squares) at the same time points.

in vivo = conditions: male, cynomolgus monkey, iv, 3 mg/kg
[5] = Pharmacokinetic studies in rat (IV and SC); conditions: male rats, SC 30 mg/kg, combined plasma concentrations of R3152 and R3201
Method: Left: Male Sprague-Dawley rats (n=3) were injected intravenously at a single 2 mg/kg dose. Blood samples were collected at indicated time points, processed into plasma, and analyzed for the indicated compound by LC-MS. […] […] Blood samples were collected at indicated time points, processed into plasma, and analyzed for the indicated compound by LC-MS.
Blood samples were collected at indicated time points, processed into plasma, and analyzed for the indicated compound by LC-MS. […] Blood samples were collected at indicated time points, processed into plasma, and analyzed for the indicated compound by LC-MS.

[6] = cynomolgus monkey, single 3 mg/kg IV
rat C5 = target: T2, rat C5 (Rattus norvegicus, UniProt P08650); experiment: Ex vivo hemolysis assays in the rat study
T2 construct: from tissue; host or cells: plasma of dosed male rats

primate C5 protein [7] = experiment: Hemolysis assay with exogenous compound added to normal cynomolgus plasma; format: cell-based, cynomolgus monkey

T1 sequence (P01031 19-1676): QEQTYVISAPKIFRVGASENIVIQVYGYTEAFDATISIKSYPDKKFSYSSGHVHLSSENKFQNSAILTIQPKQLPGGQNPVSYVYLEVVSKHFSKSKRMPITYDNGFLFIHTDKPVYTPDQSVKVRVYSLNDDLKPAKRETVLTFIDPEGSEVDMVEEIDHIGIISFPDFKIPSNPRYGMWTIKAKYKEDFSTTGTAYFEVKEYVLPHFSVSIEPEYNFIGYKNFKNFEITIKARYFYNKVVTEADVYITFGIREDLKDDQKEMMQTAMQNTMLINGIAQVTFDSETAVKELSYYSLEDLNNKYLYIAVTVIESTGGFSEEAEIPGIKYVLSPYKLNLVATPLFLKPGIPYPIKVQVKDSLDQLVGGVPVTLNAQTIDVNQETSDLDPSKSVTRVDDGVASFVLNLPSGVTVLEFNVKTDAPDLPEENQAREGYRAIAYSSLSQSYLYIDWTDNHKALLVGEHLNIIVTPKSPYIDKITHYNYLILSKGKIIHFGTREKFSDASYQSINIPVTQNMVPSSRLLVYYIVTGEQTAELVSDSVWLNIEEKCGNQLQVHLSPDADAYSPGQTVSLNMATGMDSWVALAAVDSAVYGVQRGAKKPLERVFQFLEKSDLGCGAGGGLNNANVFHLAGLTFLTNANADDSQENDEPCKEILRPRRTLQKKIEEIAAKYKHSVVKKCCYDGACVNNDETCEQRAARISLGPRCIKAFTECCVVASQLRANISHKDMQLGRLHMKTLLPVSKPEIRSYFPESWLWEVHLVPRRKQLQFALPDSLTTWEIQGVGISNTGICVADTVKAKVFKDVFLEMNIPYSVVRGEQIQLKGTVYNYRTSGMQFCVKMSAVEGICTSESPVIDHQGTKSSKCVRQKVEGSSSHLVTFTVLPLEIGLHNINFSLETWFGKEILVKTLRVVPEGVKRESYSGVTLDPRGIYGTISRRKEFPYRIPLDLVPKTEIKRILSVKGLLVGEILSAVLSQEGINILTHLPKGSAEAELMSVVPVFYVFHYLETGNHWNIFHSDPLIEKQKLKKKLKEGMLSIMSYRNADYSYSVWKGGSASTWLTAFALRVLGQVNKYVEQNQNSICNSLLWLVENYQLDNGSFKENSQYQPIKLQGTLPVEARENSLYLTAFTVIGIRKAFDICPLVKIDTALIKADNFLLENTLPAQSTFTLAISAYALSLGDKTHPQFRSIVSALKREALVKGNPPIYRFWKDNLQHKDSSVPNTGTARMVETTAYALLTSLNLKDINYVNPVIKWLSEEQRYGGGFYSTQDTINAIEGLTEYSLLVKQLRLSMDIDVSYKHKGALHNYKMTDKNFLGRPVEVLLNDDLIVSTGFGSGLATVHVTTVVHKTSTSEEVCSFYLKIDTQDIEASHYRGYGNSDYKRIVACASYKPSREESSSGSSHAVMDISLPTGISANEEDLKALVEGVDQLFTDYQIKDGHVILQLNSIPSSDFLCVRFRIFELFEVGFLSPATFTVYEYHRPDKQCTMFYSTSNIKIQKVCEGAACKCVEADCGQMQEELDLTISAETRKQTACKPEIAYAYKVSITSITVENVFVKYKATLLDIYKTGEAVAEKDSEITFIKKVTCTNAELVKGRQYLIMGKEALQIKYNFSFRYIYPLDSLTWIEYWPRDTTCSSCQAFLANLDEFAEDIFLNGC
T2 sequence (P08650 19-1681): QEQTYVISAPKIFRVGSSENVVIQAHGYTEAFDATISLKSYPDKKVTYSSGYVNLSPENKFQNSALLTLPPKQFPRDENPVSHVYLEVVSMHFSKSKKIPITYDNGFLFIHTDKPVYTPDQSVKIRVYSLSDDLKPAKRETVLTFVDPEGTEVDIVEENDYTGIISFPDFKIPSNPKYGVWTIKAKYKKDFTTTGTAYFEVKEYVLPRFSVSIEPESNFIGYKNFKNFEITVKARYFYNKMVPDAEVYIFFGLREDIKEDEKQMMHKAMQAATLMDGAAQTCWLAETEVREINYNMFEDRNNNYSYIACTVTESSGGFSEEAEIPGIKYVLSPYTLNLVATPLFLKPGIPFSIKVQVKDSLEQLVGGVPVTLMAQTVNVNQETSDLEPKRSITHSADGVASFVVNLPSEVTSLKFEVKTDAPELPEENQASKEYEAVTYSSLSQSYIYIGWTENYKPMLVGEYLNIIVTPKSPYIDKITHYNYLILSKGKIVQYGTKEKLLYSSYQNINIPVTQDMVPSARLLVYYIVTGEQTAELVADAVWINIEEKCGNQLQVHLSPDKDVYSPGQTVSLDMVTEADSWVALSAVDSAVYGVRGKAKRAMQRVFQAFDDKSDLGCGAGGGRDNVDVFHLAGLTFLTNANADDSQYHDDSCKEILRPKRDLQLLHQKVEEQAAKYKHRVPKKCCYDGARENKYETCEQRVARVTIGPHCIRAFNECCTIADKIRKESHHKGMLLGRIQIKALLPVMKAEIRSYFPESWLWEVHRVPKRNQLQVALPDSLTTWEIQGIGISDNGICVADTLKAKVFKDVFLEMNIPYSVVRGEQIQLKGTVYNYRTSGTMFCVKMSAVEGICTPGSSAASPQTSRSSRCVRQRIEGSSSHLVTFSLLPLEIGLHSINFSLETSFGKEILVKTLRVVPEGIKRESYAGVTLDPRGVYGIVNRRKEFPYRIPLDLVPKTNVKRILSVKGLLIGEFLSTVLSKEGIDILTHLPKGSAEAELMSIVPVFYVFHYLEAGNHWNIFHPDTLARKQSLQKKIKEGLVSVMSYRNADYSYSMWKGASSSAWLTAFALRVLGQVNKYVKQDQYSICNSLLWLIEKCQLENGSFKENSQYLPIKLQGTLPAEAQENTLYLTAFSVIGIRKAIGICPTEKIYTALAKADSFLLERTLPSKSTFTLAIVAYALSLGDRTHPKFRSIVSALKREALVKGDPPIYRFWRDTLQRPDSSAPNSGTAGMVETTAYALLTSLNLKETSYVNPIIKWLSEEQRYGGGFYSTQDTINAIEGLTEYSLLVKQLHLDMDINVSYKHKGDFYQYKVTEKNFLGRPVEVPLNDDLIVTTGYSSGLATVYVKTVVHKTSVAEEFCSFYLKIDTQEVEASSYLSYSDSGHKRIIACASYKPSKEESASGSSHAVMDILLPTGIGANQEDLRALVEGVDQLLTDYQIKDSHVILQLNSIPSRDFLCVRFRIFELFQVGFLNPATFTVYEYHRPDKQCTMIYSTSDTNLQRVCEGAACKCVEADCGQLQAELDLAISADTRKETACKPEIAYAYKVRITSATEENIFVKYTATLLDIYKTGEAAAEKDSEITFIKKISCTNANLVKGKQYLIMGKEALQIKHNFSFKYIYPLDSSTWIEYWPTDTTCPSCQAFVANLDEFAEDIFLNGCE

SMILES | IC50 (C5 [1]) | IC50 (C5a) | IC50 [2] | Kd (C5 [3]) | binding to primate C5 protein (in words) (primate C5 protein [4]; cynomolgus monkey, in vivo) | time after dosing at which hemolytic activity returned to normal levels (primate C5 protein [4]; cynomolgus monkey, single 3 mg/kg IV) | plasma concentration with clear inhibition of complement-mediated hemolysis (primate C5 protein [4]; cynomolgus plasma diluted 1:100, activated sheep red blood cells) | AUC(0-inf) (in vivo) | Vd (in vivo) | clearance (in vivo) | half-life (in vivo) | level at 48 h (in vivo) | bioavailability of dose, based on AUC [5] | initial distribution phase [6] | time for which plasma drug levels were detectable [6] | inhibitory activity in ex vivo hemolysis assays (in words) (rat C5) | binding to rat C5 (in words) (rat C5; in vivo) | IC50 (primate C5 protein [7])
CCC[C@H](NC(=O)[C@@H]1CCCN1C(=O)[C@H](CCC)NC(=O)[C@@H]1CSCc2cccc(c2)CSC[C@H](NC(=O)[C@H](CCC)NC(C)=O)C(=O)N[C@@H](c2ccccc2)C(=O)N[C@@H]([C@@H](C)O)C(=O)N[C@@H](Cc2c[nH]c3ncccc23)C(=O)N[C@@H](CCC(=O)O)C(=O)N[C@@H](Cc2ccc(O)cc2)C(=O)N(C)[C@@H](CO)C(=O)N[C@@H](Cc2c[nH]cn2)C(=O)N1)C(N)=O [Compound R3008, [mXylyl(2,10)]Ac-Nvl-C-Phg-T-azaTrp-E-Y-(N-Me)S-H-C-Nvl-P-Nvl-NH2] (Ac-[Nva]C[Phg]T[Trp(7-aza)]EY[NMeS]HC[Nva]P[Nva]-NH2; linker 2-10 via mXylylene) | 97 nM | 54.5 nM | 33 nM | – | – | – | – | – | – | – | – | – | – | – | – | – | – | –
CCC[C@H](NC(C)=O)C(=O)N[C@@H](CCC)C(=O)N[C@@H](Cc1ccc(O)cc1)C(=O)N[C@@H](CCC(=O)O)C(=O)N[C@@H](CC(N)=O)C(=O)N[C@H](C(=O)N[C@@H](Cc1ccc(O)cc1)C(=O)N[C@@H](Cc1c[nH]c2ncccc12)C(=O)N[C@@H](CCC(=O)O)C(=O)N[C@@H](Cc1ccc(O)cc1)C(=O)N1CCC[C@H]1C(=O)N[C@H](C(=O)N[C@@H](CCC)C(=O)N[C@@H](CCCCNC(=O)CCCCCNC(=O)CCC1=C(C)C2=Cc3ccc(-c4ccc(OC)cc4)n3[B-](F)(F)[N+]2=C1C)C(N)=O)C1CCCCC1)C(C)(C)C [Compound R3076, Ac-Nvl-Nvl-Y-E-N-Tbg-Y-azaTrp-E-Y-P-Chg-Nvl-K-(BODIPY-TMR-X) NH2] | 297 nM | – | – | 8.07 nM | – | – | – | – | – | – | – | – | – | – | – | – | – | –
CCC[C@H](NC(=O)[C@@H](NC(=O)[C@@H]1CCCN1C(=O)[C@H](Cc1ccc(O)cc1)NC(=O)[C@H](CCC(=O)O)NC(=O)[C@H](Cc1c[nH]c2ncccc12)NC(=O)[C@H](Cc1ccc(O)cc1)NC(=O)[C@@H](NC(=O)[C@H](CC(=O)O)NC(=O)[C@@H]1CSCc2cccc(c2)CSC[C@H](NC(C)=O)C(=O)N[C@@H](C(C)C)C(=O)N[C@@H](CCC(=O)O)C(=O)N[C@@H](CCCNC(=N)N)C(=O)N[C@@H](Cc2ccccc2)C(=O)N1)C(C)(C)C)C1CCCCC1)C(N)=O [Compound R3152, [mXylyl(1,6)]Ac-C-V-E-R-F-C-D-Tbg-Y-azaTrp-E-Y-P-Chg-Nvl-NH2] | – | – | – | – | binds with high affinity | 48 h | > 200 ng/mL | 23300 ± 2120 ng·h/mL | 1.49 ± 0.152 L/kg | 2.15 mL/min/kg | 10.9 ± 0.8 h | < 100 ng/mL | approximately 65% | < 1 h | up to 48 hours | very little inhibitory activity | do not bind | 2 to 20 ng/mL
